Data taken from PubChem BioAssay (NCI).
“And” between values parts separate entries of the source, which are not always exact repeats. Equal entries are not always repeated.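 Where inhibition never reached the appropriate level, the endpoint shown equals the highest concentration tested. Otherwise, values were interpolated linearly from a five-concentration, 48-hour dose response in 96-well plates. GI50: concentration for 50% inhibition of growth. The concentration for full growth arrest is given as TGI.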

How the values were obtained:
Assay in all cases: NCI tumour cell line growth inhibition, 48 h
A498 renal = test system: A498 renal
EKVX NSCLC = test system: EKVX NSCLC
HL-60(TB) leukemia = test system: HL-60(TB) leukemia
IGROV1 ovarian = test system: IGROV1 ovarian
K-562 leukemia = test system: K-562 leukemia
KM12 colon = test system: KM12 colon
MDA-MB-231 breast = test system: MDA-MB-231 breast
MOLT-4 leukemia = test system: MOLT-4 leukemia
SN12C renal = test system: SN12C renal
SW-620 colon = test system: SW-620 colon

`C#CCOc1c(OC)cc(C(=O)/C(C)=C/c2cccc(N=[N+]=[N-])c2)cc1OC` gave a GI50 (A498 renal) of 151 nM, a TGI (A498 renal) of 714 nM and a GI50 (EKVX NSCLC) of 517 nM. For the same compound, the TGI (EKVX NSCLC) was greater than 100000 nM, the GI50 (HL-60(TB) leukemia) was 41.1 nM and the TGI (HL-60(TB) leukemia) was 481 nM. For the same compound, the GI50 (IGROV1 ovarian) was 766 nM, the TGI (IGROV1 ovarian) was greater than 100000 nM and the GI50 (K-562 leukemia) was 38.3 nM. The TGI (K-562 leukemia) was greater than 100000 nM, the GI50 (KM12 colon) was 84.5 nM and the TGI (KM12 colon) was greater than 100000 nM. It also gave a GI50 (MDA-MB-231 breast) of 695 nM, a TGI (MDA-MB-231 breast) of 26100 nM and a GI50 (MOLT-4 leukemia) of 362 nM. For the same compound, the TGI (MOLT-4 leukemia) was greater than 100000 nM, the GI50 (SN12C renal) was 677 nM and the TGI (SN12C renal) was greater than 100000 nM. It also gave a GI50 (SW-620 colon) of 50.3 nM and a TGI (SW-620 colon) greater than 100000 nM.

Compound `NS(=O)(=O)c1ccc(NCc2cnc3ccccc3c2)cc1` has a TGI (A498 renal) greater than 100000 nM, a TGI (EKVX NSCLC) greater than 100000 nM and a TGI (HL-60(TB) leukemia) of 3960 nM. It also gave a TGI (IGROV1 ovarian) greater than 100000 nM, a TGI (K-562 leukemia) greater than 100000 nM and a TGI (KM12 colon) greater than 100000 nM. For the same compound, the TGI (MDA-MB-231 breast) was greater than 100000 nM, the TGI (MOLT-4 leukemia) was greater than 100000 nM and the TGI (SN12C renal) was greater than 100000 nM. For the same compound, the TGI (SW-620 colon) was greater than 100000 nM.

`Cc1cccc2c(=O)c3c(sc12)c(NCCN)nc1ccccc13` gave a GI50 (A498 renal) of 2720 nM, a TGI (A498 renal) of 6920 nM and a GI50 (EKVX NSCLC) of 815 nM. For the same compound, the TGI (EKVX NSCLC) was 1710 nM, the GI50 (HL-60(TB) leukemia) was 864 nM and the TGI (HL-60(TB) leukemia) was 1740 nM. For the same compound, the GI50 (IGROV1 ovarian) was 582 nM, the TGI (IGROV1 ovarian) was 1260 nM and the GI50 (K-562 leukemia) was 827 nM. It also gave a TGI (K-562 leukemia) of 1950 nM, a GI50 (KM12 colon) of 913 nM and a TGI (KM12 colon) of 1770 nM. For the same compound, the GI50 (MDA-MB-231 breast) was 664 nM, the TGI (MDA-MB-231 breast) was 1410 nM and the GI50 (MOLT-4 leukemia) was 887 nM. The TGI (MOLT-4 leukemia) was 1800 nM, the GI50 (SN12C renal) was 754 nM and the TGI (SN12C renal) was 1540 nM. For the same compound, the GI50 (SW-620 colon) was 794 nM and the TGI (SW-620 colon) was 1570 nM.

For `COc1cc([C@@H]2c3cc4c(cc3[C@H](O)[C@H]3COC(=O)[C@@H]23)OCO4)cc(OC)c1OC`, the GI50 (A498 renal) was 239 nM and 451 nM, the GI50 (EKVX NSCLC) was 434 nM and the TGI (EKVX NSCLC) was greater than 100000 nM. For the same compound, the GI50 (HL-60(TB) leukemia) was 293 nM and 454 nM, the TGI (HL-60(TB) leukemia) was > 2810 nM and 64100 nM and the GI50 (IGROV1 ovarian) was 423 nM and 240 nM. The TGI (IGROV1 ovarian) was greater than 100000 nM, the GI50 (K-562 leukemia) was 349 nM and 405 nM and the TGI (K-562 leukemia) was greater than 100000 nM. For the same compound, the GI50 (KM12 colon) was 343 nM and 158 nM, the TGI (KM12 colon) was > 8500 nM and 967 nM and the GI50 (MDA-MB-231 breast) was 776 nM and 454 nM. For the same compound, the TGI (MDA-MB-231 breast) was greater than 100000 nM, the GI50 (MOLT-4 leukemia) was 587 nM and 845 nM and the TGI (MOLT-4 leukemia) was greater than 100000 nM. The GI50 (SN12C renal) was 677 nM and 400 nM, the TGI (SN12C renal) was greater than 100000 nM and the GI50 (SW-620 colon) was 409 nM and 219 nM. For the same compound, the TGI (SW-620 colon) was greater than 100000 nM.

For `COc1ccc2c(c1)N(CCC1CCCCN1C)c1ccccc1S2` (centres undefined), the TGI (A498 renal) was 23800 nM, the TGI (EKVX NSCLC) was 36500 nM and the TGI (HL-60(TB) leukemia) was 24800 nM. For the same compound, the TGI (IGROV1 ovarian) was 26500 nM, the TGI (K-562 leukemia) was 18200 nM and the TGI (KM12 colon) was 23600 nM. For the same compound, the TGI (MDA-MB-231 breast) was 23600 nM, the TGI (MOLT-4 leukemia) was 17200 nM and the TGI (SN12C renal) was 29400 nM. It also gave a TGI (SW-620 colon) of 35500 nM.
